The values below come from publication PMC10538209, “Ginsentide-like Coffeetides Isolated from Coffee Waste Are Cell-Penetrating and Metal-Binding Microproteins” (Molecules, 2023).

Positions of bridges follow the written chain, without caps; N, C: chain ends. Non-standard residues stand in square brackets, D forms with d. Residues, ends and D or L forms follow the SMILES beside them. pGlu = O=C1CC[C@@H](C(=O)O)N1

Data set [1] is described as follows: Isothermal titration calorimetry (ITC), Mg2+. The settings on record: 10 mM Tris, 100 mM NaCl, pH 6.3, 20 °C in text (298 K in method), synthetic cC1a, read-out: binding affinity (KD) to Mg^2+. As for the experimental part:
(§1) Isothermal Titration Calorimetry (ITC) experiments were conducted at 298 K using the MicroCal PEAQ ITC system from Malvern Instruments Ltd., Malvern, UK. MgCl2, KCl, CaCl2, and FeCl3 were dissolved in a 10 mM Tris buffer containing 100 mM NaCl at a pH of 6.3. Similarly, coffeetide cC1a was prepared in the same buffer. In the initial set of experiments, 200 µM of these ions were incrementally titrated into cC1a, involving twenty 2.5 µL injections, while simultaneously measuring the heat changes. Additional experiments were conducted with higher concentrations of KCl, MgCl2, and FeCl3 interacting with cC1a. Specifically, 400 µM of KCl, MgCl2, and FeCl3 were titrated into a solution containing 40 µM of cC1a, utilizing twenty 2.5 µL injections, and monitoring the associated heat changes. Control experiments were conducted by titrating ions into a 10 mM Tris (pH 6.3) buffer containing 100 mM NaCl to account for heat changes resulting from dilution. The obtained titration curves were analyzed using MicroCal PEAQ-ITC analytics software (version 1.0.0.1259, Malvern Instruments Ltd.).

A short description of data set [2]: Human serum-mediated stability. In kind it is in vitro ADME. The conditions noted are these: 25% human serum (AB-type) in DMEM, native cC1a, 25% human male serum (AB-type) in phenol red-free DMEM, 37 °C, ethanol precipitation, RP-UHPLC, read-out: coffeetide remained after treatment with human serum. As for the experimental part: (§2) Figure 6 Stability assays of coffeetide cC1a. An amount of 200 µM coffeetide cC1a was subjected to (A) heat at 100 °C for 2 h, (B) acidic conditions in 1 M HCl (pH 2.0) for 2 h, (C) pepsin in 100 mM sodium citrate buffer (pH 2.5) for 6 h, (D) aminopeptidase I in 20 mM tricine for 6 h, and (E) human serum for 36 h. MALDI-TOF MS was used to characterize coffeetide cC1a and reversed-phase ultra-high pressure liquid chromatography was used to quantify cC1a in the treated samples to calculate the percentage of cC1a remaining intact.
Human serum-mediated stability: To assess stability in a biologically relevant context, purified 200 µg coffeetide cC1a was incubated with 25% human male serum (AB-type) in phenol red-free Dulbecco’s Modified Eagle Medium (DMEM) at 37 °C for 48 h. At defined time points (0 h, 12 h, 24 h, and 48 h), 50 µL of the samples were collected and treated with 100 µL of 95% ethanol to precipitate serum proteins. After incubation at 4 °C for 15 min and centrifugation at 13,000 rpm for 10 min, the extent of degradation was evaluated through RP-UHPLC chromatograms.

The nature of data set [3]: Isothermal titration calorimetry (ITC), K+. Format: binding. The settings on record: 200 µM (also 400 µM) metal ion titrated into cC1a, 10 mM Tris, 100 mM NaCl, pH 6.3. Here is the method: as §1
On the technique in general: In ITC the heat of successive injections is recorded.

In a further data set the test system is HUVEC-CS cells. Briefly: MTT toxicity assay, HUVEC-CS. In kind it is cell-based, human. The conditions noted are these: 24 h treatment, concentrations up to 100 µM, MTT absorbance 550 nm, mean ± S.E.M. n = 3. As for the experimental part:
(§3) HeLa cells (human cervical cancer cells) and HUVEC-CS (human umbilical vein endothelial cells) were cultured in DMEM (Dulbecco’s Modified Eagle Medium) from Thermo Scientific, supplemented with 10% fetal bovine serum, 100 U/mL of penicillin, and streptomycin. Cell cultures were maintained in a 5% CO2 incubator at 37 °C.
(§4) To evaluate cell viability, a 3-(4,5-dimethylthiazolyl-2)-2,5-diphenyltetrazolium bromide (MTT) dye reduction assay was employed. In brief, HeLa and HUVEC-CS cells were subjected to treatment with either coffeetide cC1a or 0.1% Triton X-100 (utilized as a positive control) for a duration of 24 h. Following the incubation period, MTT was introduced to the cells to achieve a final concentration of 0.5 mg/mL and incubated for 3 h at 37 °C. The resulting insoluble formazan crystals were subsequently dissolved by the addition of dimethyl sulfoxide, and absorbance was measured at 550 nm using a microplate reader (Tecan Infinite® 200 Pro, Switzerland).
(Formazan colour is commonly taken as a measure of viable cells.)

The nature of the next data set: Acidic stability assay. In kind it is physicochemical. The settings on record: native cC1a 200 µM; acidic conditions (pH 2), 1 M HCl in legend, 2 M HCl in method, 2 h; quenched with 1 M NaOH; RP-UHPLC; triplicate. As for the experimental part: as §2
(§5) Thermal and acidic stability: A solution of purified 200 µM coffeetide cC1a was subjected to rigorous conditions, including incubation at 100 °C in a water bath and exposure to 2 M hydrochloric acid for 2 h. The reactions were promptly quenched, either by placing the samples in an ice bath for 10 min or by adding 1 M sodium hydroxide at various time intervals (0, 30, 60, 90, 120 min). Subsequently, the treated samples were injected into RP-UHPLC to evaluate the presence of coffeetide cC1a and quantify any degradation. Each experiment was conducted in triplicate, and MALDI-TOF MS was employed to analyze the collected peaks.

A further data set deals with T1, pepsin.
T1 construct: purchased Sigma Aldrich or Fisher Scientific (general statement only)
Briefly: Proteolytic stability, pepsin. The settings on record: native cC1a 200 µM, 4 mg/mL pepsin in 100 mM sodium citrate buffer pH 2.5, 37 °C, RP-UHPLC, read-out: coffeetide remained intact with pepsin. In kind it is in vitro ADME. Here is the method: as §2
(§6) Proteolytic stability: In this test, purified 200 µM coffeetide cC1a was exposed to 37 °C for 6 h in the presence of 4 mg/mL of pepsin in a 100 mM sodium citrate buffer (pH 2.5) or 20 U/mL of aminopeptidase I in 20 mM tricine and 0.05% bovine serum albumin (pH 8.0). The peptide-to-enzyme ratio (w/w) was maintained at either 20:1 or 50:1. At specific time intervals (0, 2, 4, and 6 h), 20 µL of each sample was injected into RP-UHPLC to monitor degradation.

The next data set can be described thus: Thermal stability assay. In kind it is physicochemical. The settings on record: native cC1a 200 µM; high heat (95 °C in text; 100 °C water bath in legend and method), 2 h; quenched in ice bath; RP-UHPLC quantification; triplicate. As for the experimental part:
as §2, §5

The nature of data set [4]: Isothermal titration calorimetry (ITC), Ca2+. Format: binding. The conditions noted are these: 200 µM metal ion titrated into cC1a, 10 mM Tris, 100 mM NaCl, pH 6.3. Here is the method:
as §1

The nature of data set [5]: Isothermal titration calorimetry (ITC), Fe3+. The conditions noted are these: 10 mM Tris, 100 mM NaCl, pH 6.3, 20 °C in text (298 K in method), synthetic cC1a, read-out: binding affinity (KD) to Fe^3+. Here is the method: as §1
Another data set relates to HeLa cells. Briefly: MTT toxicity assay, HeLa. The conditions noted are these: 24 h treatment, concentrations up to 100 µM, MTT absorbance 550 nm, mean ± S.E.M. n = 3. Format: cell-based, human. As for the experimental part:
as §3, §4

The subject of the next data set is T2, aminopeptidase I.
T2 construct: purchased Sigma Aldrich or Fisher Scientific (general statement only)
In words: Proteolytic stability, aminopeptidase I. In kind it is in vitro ADME. The conditions noted are these: native cC1a 200 µM, 20 U/mL aminopeptidase I in 20 mM tricine, 0.05% BSA, pH 8.0, 37 °C, RP-UHPLC, read-out: coffeetide remained intact with aminopeptidase. As for the experimental part: as §2, §6

By Kd is commonly meant the free concentration of one partner at which half of the binding sites on the other are occupied at equilibrium, for simple one-to-one binding. Consider `CC[C@H](C)[C@@H]1NC(=O)[C@@H]2CSSC[C@@H]3NC(=O)[C@@H]4CCCN4C(=O)[C@H](CCC(=O)O)NC(=O)CNC(=O)[C@H](CC(C)C)NC(=O)[C@@H]4CCCN4C(=O)[C@H](CO)NC(=O)[C@@H](NC(=O)[C@H](CCC(=O)O)NC(=O)CNC(=O)[C@H](CCC(=O)O)NC(=O)[C@@H]4CCC(=O)N4)CSSC[C@@H]4NC(=O)[C@H](CSSC[C@H](NC(=O)[C@H](CCCNC(=N)N)NC(=O)[C@H](CC(=O)O)NC(=O)[C@H]([C@@H](C)O)NC(=O)[C@H](CC(C)C)NC(=O)[C@H](CCC(N)=O)NC(=O)[C@H](Cc5c[nH]c6ccccc56)NC1=O)C(=O)N[C@@H](C(C)C)C(=O)NCC(=O)N[C@@H](CC(N)=O)C(=O)N[C@H](C(=O)O)CSSC[C@H](NC(=O)CNC(=O)[C@@H]1CCCN1C4=O)C(=O)N[C@@H]([C@@H](C)CC)C(=O)N2)NC(=O)CNC(=O)[C@H](Cc1c[nH]c2ccccc12)NC(=O)[C@@H]1CCCN1C(=O)[C@H](CC(N)=O)NC(=O)CNC(=O)[C@H](C)NC3=O` [cC1a] ([pGlu]EGECSPLGEPCAGNPWGCCPGCICIWQLTDRCVGNC-OH; disulfide 5-20, 12-25, 19-33, 23-37), for which the Kd in data set [1] stood at 4190 ± 4790 nM; in data set [5], 1670 ± 1800 nM. For the same compound, the remaining at 36 h, 200 µM in data set [2] is more than 85%. The “binding affinity to K^+” value in data set [3] is reported as “does not display reproducible binding affinity”. The “cytotoxicity (MTT cell viability)” value in the data set with HUVEC-CS cells and with HeLa cells was “not cytotoxic” in each case. Further, the “coffeetide remained intact under acidic conditions” value in the data set “Acidic stability assay” is recorded as more than 88%. Further, the remaining at 6 h, 200 µM with pepsin and in the data set with aminopeptidase I was more than 90% throughout. Besides, in “Thermal stability assay”, the “coffeetide remained intact under high heat” value is listed as more than 88%. In addition, the “binding affinity to Ca^2+” value in data set [4] was “does not display reproducible binding affinity”.
